Results published in patent US20130184302A1, “METHODS FOR TREATING IRRITABLE BOWEL SYNDROME (IBS) AND INFECTIONS” (priority 2011, published 2013).

How the values were obtained:
Format in all cases: in vivo, human
[1] = system: C. difficile infection (CDI); assay: CDI trial: subgroup analysis of diarrhea at TOC; settings: for Diarrhea, number of subjects / Diarrhea, percent of subjects / No Diarrhea, number of subjects / No Diarrhea, percent of subjects: at TOC; for Diarrhea at TOC: Treatment Difference: Rifaximin vs Vancomycin
From the text: Tables 42 and 43 set forth a subgroup analysis of diarrhea at TOC.

[2] = system: patients with non-constipation IBS (non-C IBS); assay: Adequate relief of IBS symptoms and IBS symptom of bloating (weekly SGA, daily measures), rifaximin 550 mg TID 14 days
From the text: A measure of efficacy was based on subjects' answers to the Weekly Subject Global Assessment (SGA) questions over the 4 week study duration in relation to their IBS symptoms. […] The SGA question was asked weekly as follows: “In the past 7 days, have you had adequate relief of your IBS symptom of bloating?” (Yes/No).
The primary efficacy endpoint of the study was the proportion of subjects who achieved adequate relief of IBS symptoms for at least 2 weeks during the first 4 weeks of the 10-week follow-up phase.
Two measures of efficacy were assessed.
Subjects were questioned on the relief of overall IBS symptoms and bloating. […] The analyses defined success as a “yes” response to questions regarding adequate relief.
All subpopulations in the study responded to therapy. Baseline severity was determined during screening for Abdominal Pain/Discomfort and Bloating, and the number, type (normal, hard, loose) and urgency of bowel movements. Duration of effect was assessed in a ten week follow-up period.

[3] = system: C. difficile infection (CDI); assay: CDI trial: global cure of diarrhea
From the text: Subjects having a global cure of diarrhea are set for the in Table 45. Global cure of diarrhea was defined as subjects who were cured of diarrhea at TOC without recurrence at follow up.

[4] = system: C. difficile infection (CDI); assay: CDI trial: recurrence of CDI, recurrence rate per person-year
From the text: Recurrence was defined to be a diarrhea and a positive C. diff stool toxin assay that occurred after initial clinical success.

[5] = subgroup Age <65, Rifaximin N = 69, Vancomycin N = 62
[6] = subgroup Age >=65, Rifaximin N = 39, Vancomycin N = 49
[7] = subgroup Female, Rifaximin N = 68, Vancomycin N = 64
[8] = subgroup Male, Rifaximin N = 40, Vancomycin N = 47
[9] = Age Group: <65 (N = 281), 550 mg TID
[10] = Gender: Female (N = 226), 550 mg TID
[11] = Gender: Male (N = 85), 550 mg TID
[12] = IBS Subtype: Alternating-predominant, 550 mg TID
[13] = IBS Subtype: Diarrhoea-predominant, 550 mg TID
[14] = Population: ITT (N = 315), 550 mg TID
[15] = Population: PP (N = 311), 550 mg TID
[16] = Population: PP (N = 311), weekly SGA, 550 mg TID
[17] = Race: Non-White (N = 31), 550 mg TID
[18] = Race: White (N = 280), 550 mg TID
[19] = oral rifaximin 550 mg TID 14 days vs subjects not taking rifaximin
[20] = weekly SGA, at least 2 of Weeks 3 through 6, 550 mg TID (N = 315)
[21] = weekly SGA, 550 mg TID (N = 315)
[22] = Rifaximin N = 117, Vancomycin N = 115
[23] = cured of diarrhea at TOC without recurrence at follow up, Rifaximin N = 117, Vancomycin N = 115
[24] = after initial clinical success, Rifaximin N = 67, Vancomycin N = 73
[25] = all subjects, Rifaximin N = 117, Vancomycin N = 115

## CO[C@H]1/C=C/O[C@@]2(C)Oc3c(C)c(O)c4c(O)c(c5c(nc6cc(C)ccn65)c4c3C2=O)NC(=O)/C(C)=C\C=C\[C@H](C)[C@H](O)[C@@H](C)[C@@H](O)[C@@H](C)[C@H](OC(C)=O)[C@@H]1C [Rifaximin, (2S,16Z,18E,20S,21S,22R, 23R,24R,25S,26S,27S,28E)-5,6,21,23,25 Pentahydroxy-27-methoxy-2,4,11,16,20,22,24,26-octamethyl-2,7-(epoxypentadeca-(1,11,13)trienimino) benzofuro (4,5-e) pyrido(1,2,-a) benzimidazole-1,15(2H)-dione,25-acetate]
[1]; [5]
  Diarrhea, number of subjects: 16
  Diarrhea, percent of subjects: (23%)
  No Diarrhea, number of subjects: 53
  No Diarrhea, percent of subjects: (77%)
[1]; [6]
  Diarrhea, number of subjects: 6
  Diarrhea, percent of subjects: (15%)
  No Diarrhea, number of subjects: 33
  No Diarrhea, percent of subjects: (85%)
[1]; [7]
  Diarrhea, number of subjects: 14
  Diarrhea, percent of subjects: (21%)
  No Diarrhea, number of subjects: 54
  No Diarrhea, percent of subjects: (79%)
[1]; [8]
  Diarrhea, number of subjects: 8
  Diarrhea, percent of subjects: (20%)
  No Diarrhea, number of subjects: 32
  No Diarrhea, percent of subjects: (80%)
[1]; subgroup Age <65
  Diarrhea at TOC: Treatment Difference: −3.8%
[1]; subgroup Age >=65
  Diarrhea at TOC: Treatment Difference: 3.0%
[1]; subgroup Female
  Diarrhea at TOC: Treatment Difference: −3.4%
[1]; subgroup Male
  Diarrhea at TOC: Treatment Difference: 1.3%
[2]; [9]
  Adequate Relief of IBS symptom of Bloating: Failure: 171 (60.9%)
  Adequate Relief of IBS symptom of Bloating: Success: 110 (39.1%)
  Adequate Relief of IBS symptoms: Failure: 171 (60.9%)
  Adequate Relief of IBS symptoms: Success: 110 (39.1%)
[2]; Age Group: > = 65, 550 mg TID
  Adequate Relief of IBS symptom of Bloating: Failure: 16 (53.3%)
  Adequate Relief of IBS symptom of Bloating: Success: 14 (46.7%)
  Adequate Relief of IBS symptoms: Failure: 16 (53.3%)
  Adequate Relief of IBS symptoms: Success: 14 (46.7%)
[2]; [10]
  Adequate Relief of IBS symptom of Bloating: Failure: 128 (56.6%)
  Adequate Relief of IBS symptom of Bloating: Success: 98 (43.4%)
  Adequate Relief of IBS symptoms: Failure: 130 (57.5%)
  Adequate Relief of IBS symptoms: Success: 96 (42.5%)
[2]; [11]
  Adequate Relief of IBS symptom of Bloating: Failure: 59 (69.4%)
  Adequate Relief of IBS symptom of Bloating: Success: 26 (30.6%)
  Adequate Relief of IBS symptoms: Failure: 57 (67.1%)
  Adequate Relief of IBS symptoms: Success: 28 (32.9%)
[2]; [12]
  Adequate Relief of IBS symptom of Bloating: Failure: 19 (55.9%)
  Adequate Relief of IBS symptom of Bloating: Success: 15 (44.1%)
  Adequate Relief of IBS symptoms: Failure: 21 (61.8%)
  Adequate Relief of IBS symptoms: Success: 13 (38.2%)
[2]; [13]
  Adequate Relief of IBS symptom of Bloating: Failure: 168 (60.6%)
  Adequate Relief of IBS symptom of Bloating: Success: 109 (39.4%)
  Adequate Relief of IBS symptoms: Failure: 166 (59.9%)
  Adequate Relief of IBS symptoms: Success: 111 (40.1%)
[2]; [14]
  Adequate Relief of IBS symptom of Bloating Based on Daily Measures: Failure: 182 (57.8%)
  Adequate Relief of IBS symptom of Bloating Based on Daily Measures: Success: 133 (42.2%)
  Adequate Relief of IBS symptoms Based on Daily Measures: Failure: 200 (63.5%)
  Adequate Relief of IBS symptoms Based on Daily Measures: Success: 115 (36.5%)
[2]; [15]
  Adequate Relief of IBS symptom of Bloating Based on Daily Measures: Failure: 180 (57.9%)
  Adequate Relief of IBS symptom of Bloating Based on Daily Measures: Success: 131 (42.1%)
  Adequate Relief of IBS symptoms Based on Daily Measures: Failure: 196 (63.0%)
  Adequate Relief of IBS symptoms Based on Daily Measures: Success: 115 (37.0%)
[2]; [16]
  Adequate Relief of IBS symptom of Bloating: Failure: 187 (60.1%)
  Adequate Relief of IBS symptom of Bloating: Success: 124 (39.9%)
  Adequate Relief of IBS symptoms: Failure: 187 (60.1%)
  Adequate Relief of IBS symptoms: Success: 124 (39.9%)
[2]; [17]
  Adequate Relief of IBS symptom of Bloating: Failure: 17 (54.8%)
  Adequate Relief of IBS symptom of Bloating: Success: 14 (45.2%)
  Adequate Relief of IBS symptoms: Failure: 16 (51.6%)
  Adequate Relief of IBS symptoms: Success: 15 (48.4%)
[2]; [18]
  Adequate Relief of IBS symptom of Bloating: Failure: 170 (60.7%)
  Adequate Relief of IBS symptom of Bloating: Success: 110 (39.3%)
  Adequate Relief of IBS symptoms: Failure: 171 (61.1%)
  Adequate Relief of IBS symptoms: Success: 109 (38.9%)
[2]; [19]
  Answers to weekly SGA question on adequate relief of IBS symptom of bloating: responded “Yes” more often
  Answers to weekly SGA question on adequate relief of IBS symptoms: responded “Yes” more often
[2]; [20]
  Adequate Relief of IBS symptom of Bloating: Success: 125 (39.7%)
  Adequate Relief of IBS symptoms: Success: 125 (39.7%)
[2]; [21]
  Adequate Relief of IBS symptom of Bloating: Failure: 190 (60.3%)
  Adequate Relief of IBS symptoms: Failure: 190 (60.3%)
[3]; [22]
  Global Cure of Diarrhea: No, number of subjects: 34
  Global Cure of Diarrhea: No, percent of subjects: (29%)
[3]; Rifaximin vs Vancomycin
  Global Cure of Diarrhea: Treatment Difference: −3.0%
[3]; [23]
  Global Cure of Diarrhea: Yes, number of subjects: 83
  Global Cure of Diarrhea: Yes, percent of subjects: (71%)
[4]; [22]
  Recurrence Rate per Person-Year Exposure: 0.613
[4]; Rifaximin vs Vancomycin, subjects with initial clinical success
  Recurrence of CDI: Treatment Difference: 4.7%
[4]; [24]
  No Recurrence of CDI, number of subjects: 61
  No Recurrence of CDI, percent of subjects: (91%)
  Recurrence of CDI, number of subjects: 6
  Recurrence of CDI, percent of subjects: (9%)
[4]; [25]
  Recurrence: No, number of subjects: 111
  Recurrence: No, percent of subjects: (95%)
  Recurrence: Yes, number of subjects: 6
  Recurrence: Yes, percent of subjects: (5%)
